System: sfEBMs in suspension
Experiment: S18 treatment of sfEBMs in suspension, histology and immunocytochemistry
Format: cell-based, human
Protocol: To perform immunostaining on fixed cells or cytospins, the samples were washed in block buffer (3% goat serum, 1% polyvinyl Pyrolidone, 0.3% Triton X-100 in wash buffer) for 30 minutes, and then incubated with the appropriate dilution of the primary antibody, or combination of antibodies for 4-6 hours at room temperature. The primary antibodies were anti-Map2, a mouse monoclonal antibody recognizing the Map-2 a, b and c isoforms (Sigma, Catalog # M4403) at a 1/500 dilution; anti-Nestin, a rabbit polyclonal antibody (Chemicon, Catalog # AB5922) at a 1/200 dilution; anti-Oct-4, a rabbit polyclonal antibody (Santa Cruz, Catalog # sc-9081) at a 1/200 dilution; sheep anti-Tyrosine Hydroxlyase (TH) antibody (Pel-Freez, Catalog # P60101-0) at a 1/500 dilution; anti-phosphoHistoneH3, a rabbit polyclonal antibody (Upstate, Catalog, # 06-570) at a 1/400 dilution; anti-SSEA4, a mouse monoclonal antibody (Developmental Studies Hybridoma Bank, Catalog # MC-813-70) at a ⅕ dilution. The cells were then washed in wash buffer (50 mM Tris-HCL pH 7.5, and 2.5 mM NaCl) 3 times for 5 minutes each wash. The cells were then incubated for a minimum of 2 hours in secondary antibodies diluted 1:1000, followed by washing in wash buffer. The secondary antibodies were appropriate combinations of Alexa-350 (blue), -488 (green) or -568 (red) conjugated goat anti-chicken, anti-rabbit, anti-sheep or anti-mouse antibodies, all available from Molecular Probes. Some samples were stained with 5 ng/ml DAPI to detect cell nuclei, and were then washed from overnight to 2 days in a large volume of wash buffer. The slides were mounted with mounting medium and a cover slip. Slides were visualized using either a NIKON TS100 inverted microscope or a NIKON TE 2000-S inverted microscope with a Q Imaging digital camera
Essentially serum free embryoid bodies (sfEBMs) were generated as described in Example 6, and were exposed to S18 at different stages of their development in order to assess the timing of depletion of high Oct-4 expressing cells, and in order to determine when neural rosettes could be selected. The sfEBMs in suspension were treated with 10 μM S18 in 50% DMEM/F12, 50% MEDII, supplemented with 1×N2, Glutamine (20 mM), penicillin (0.5 U/ml), and streptomycin (0.5 U/ml) for varying amounts of time, and the sfEBMs were then evaluated histologically and by immunocytochemistry.
Essentially serum free embryoid bodies were derived from protease passaged cells and grown in the presence of 50% MEDII conditioned medium. The embryoid bodies were exposed to 10 μM S18 in the same medium from day 6 to 9 after derivation. At day 9 the S18 treated sfFBMs and matched control sfEBMs not exposed to S18 were fixed, embedded in plastic, cut to 3 micron sections and stained with DAPI to enable the precise determination of the proportion of the total healthy nuclei of an sfEBM that were rosette cell nuclei.

[1] = sfEBMs at day 14, 48 hours exposure to 10 μM S18

For `CCCCCCCC/C=C\CCCCCCCC(=O)NC(CO)CO` [S18, N-(2-hydroxy-1-(hydroxymethyl)ethyl)-oleoylamide], the “viable embryoid bodies derived from monolayer crater cells” value (10 μM S18, four days) was “No viable embryoid bodies were observed”, the “regions of high Oct-4 expression (residual pluripotent cells)” value (S18 selected sfEBM (10 μM) seeded at day 21, anti-Oct-4 staining) was “no regions of high Oct-4 expression could be detected” and the “mitotic activity of neural rosette precursor cells (phosphoHistone H3)” value (day 28 after derivation, 8 days after withdrawal of S18) was “still mitotically active”. The “presumptive dopaminergic neurons or their precursors (anti-TH staining)” value (exposure to 10 μM S18) was “not ablated”, the “apoptosis in sfEBMs” value [1] was “extensive apoptosis in the bodies” and the “morphology of rosette regions” value [1] was “morphologically normal”. The “population surviving incubation (DAPI stained sections)” value (sfEBMs from protease passaged cells, 10 μM S18 from day 6 to 9) was “a very pure population of neural precursor rosette cells had survived”.

Source: patent US7445931B2, “Compositions and methods for enrichment of neural stem cells using ceramide analogs” (Bresagen, Inc., priority 2002, dated 2008)
